Measured values reported in PMC7654512 (Bioorganic & medicinal chemistry letters, 2019).

Key:
[1] = Hydrolytic stability of L-Dopa phosphoramidate prodrugs; format: physicochemical; conditions: for hydrolytic stability relative to 1b (in words): 37 °C, 31P NMR, pH not stated at the place
[2] = L-Dopa alone, systemic circulation; cited from earlier work

O=C([O-])CCOP(=O)([O-])N[C@@H](Cc1ccc(O)c(O)c1)C(=O)[O-].[K+].[K+].[K+] [1c]
hydrolytic stability relative to 1b (in words) [1]: unstable compared to 1b

CC(=O)NCCOP(=O)([O-])N[C@@H](Cc1ccc(O)c(O)c1)C(=O)[O-].[K+].[K+] [1e]
hydrolytic stability (in words) ([1]; pH 7.4, 37 °C, 31P NMR over 16 h): stable

CC(=O)N[C@@H](COP(=O)([O-])N[C@@H](Cc1ccc(O)c(O)c1)C(=O)[O-])C(=O)[O-].[K+].[K+].[K+] [1b]
half-life ([1]; buffer, pH 7.4, half-life (t1/2) of hydrolysis, pH 7.4, 37 °C, 31P NMR over 16 h, internal standard TPPO, first-order kinetics): ~10 h

CC(=O)N[C@H](C(=O)[O-])[C@@H](C)OP(=O)([O-])N[C@@H](Cc1ccc(O)c(O)c1)C(=O)[O-].[K+].[K+].[K+] [1a]
hydrolytic stability relative to 1b (in words) [1]: considerably less stable than the serine analog 1b

N[C@@H](Cc1ccc(O)c(O)c1)C(=O)O [L-Dopa, Levodopa]
circulating half-life [2]: approximately 1 h
